Drawing on patent US10765662B2, “Mono- or di-substituted indole derivatives as dengue viral replication inhibitors” (Janssen Pharmaceuticals, Inc., priority 2015, dated 2020), this text covers EC50 and CC50 for three compounds.

By EC50 is commonly meant the concentration at which the effect is half-maximal. Usually CC50 stands for the concentration giving 50% cytotoxicity.

The test system of series [1] is DENV-2 16681 strain labeled with enhanced green fluorescent protein. The series can be described thus: DENV-2 antiviral assay (eGFP fluorescence read-out in Vero cells). The class given is cell-based, Dengue virus. Particulars: DENV-2 16681 eGFP, MOI 0.5, 3 days. Put shortly:
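Vero cells (2500/well) pre-plated with compound (9-step 5-fold series), infected next day with eGFP-labeled DENV-2 16681 at MOI 0.5 in MEM with 2% FCS; 3 days at 37° C. eGFP fluorescence read at 488 nm; inhibition versus virus and cell controls, EC50 by linear interpolation.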

For another series, the system named is Vero cells. The series can be described thus: in vitro. The class given is cell-based. The following applies: African green monkey.
The test system of a further series is DENV-1 strain TC974#666. The series can be described thus: Tetravalent RT-qPCR assay Protocol A, serotype 1. The format is cell-based. Particulars: Dengue virus, DENV1, 72 h; RT-qPCR serotype 1 TC974#666, Vero cells, day 3. As to the method: (§1) The antiviral activity of the compounds of the invention was tested against DENV-1 strain TC974#666 (NCPV), DENV-2 strain 16681, DENV-3 strain H87 (NCPV) and DENV-4 strains H241 (NCPV) and EDEN (SG/06K2270DK1/2005; GenBank accession number QG398256) in a RT-qPCR assay. Therefore, Vero cells were infected with either DENV-1, or -2, or -3, or -4 in the presence or absence of test compounds. At day 3 post-infection, the cells were lysed and cell lysates were used to prepare cDNA of both a viral target (the 3′UTR of DENV; Table 2) and a cellular reference gene (β-actin, Table 2). Subsequently, a duplex real time PCR was performed on a Lightcycler480 instrument. The generated Cp value is inversely proportional to the amount of RNA expression of these targets. Inhibition of DENV replication by a test compound results in a shift of Cp's for the 3′UTR gene. On the other hand, if a test compound is toxic to the cells, a similar effect on β-actin expression will be observed. The comparative ΔΔCp method is used to calculate EC50, which is based on the relative gene expression of the target gene (3′UTR) normalized with the cellular housekeeping gene (β-actin). In addition, CC50 values are determined based on the Cp values acquired for the housekeeping gene β-actin.
(§2) The culture medium consisted of minimal essential medium supplemented with 2% of heat-inactivated fetal calf serum, 0.04% gentamycin (50 mg/mL) and 2 mM of L-glutamine. Vero cells, obtained from ECACC, were suspended in culture medium and 75 μL/well was added in 96-well plates (10000 cells/well), which already contain the antiviral compounds. […] In addition, each plate contains wells which are assigned as virus controls (containing cells and virus in the absence of compound) and cell controls (containing cells in the absence of virus and compound). Once the cells were added in the plates, the plates were incubated in a fully humidified incubator (37° C., 5% CO2) until the next day. Dengue viruses serotype-1, 2, 3 and 4 were diluted in order to obtain a Cp of ˜22-24 in the assay. Therefore, 25 μL of virus suspension, was added to all the wells containing test compound and to the wells assigned as virus control. In parallel, 25 μL of culture medium was added to the cell controls. Next, the plates were incubated for 3 days in a fully humidified incubator (37° C., 5% CO2). After 3 days, the supernatant was removed from the wells and the cells were washed twice with ice-cold PBS (˜100 μL). The cell pellets within the 96-well plates were stored at −80° C. for at least 1 day. Next, RNA was extracted using the Cells-to-CT™ lysis kit, according to the manufacturer's guideline (Life Technologies). The cell lysates can be stored at −80° C. or immediately used in the reverse transcription step.
(§3) In preparation of the reverse transcription step, mix A (table 3A) was prepared and 7.57 μL/well was dispensed in a 96-well plate. After addition of 5 μL of the cell lysates, a five minute denaturation step at 75° C. was performed (table 3B). Afterwards, 7.43 μL of mix B was added (table 3C) and the reverse transcription step was initiated (table 3D) to generate cDNA.
(§4) Finally, a RT-qPCR mix was prepared, mix C (table 4A), and 22.02 μL/well was dispensed in 96-well LightCycler qPCR plates to which 3 μL of cDNA was added and the qPCR was performed according to the conditions in table 4B on a LightCycler 480.
(§5) Using the LightCycler software and an in-house LIMS system, dose response curves for each compound were calculated and the half maximal effective concentration (EC50) and the half maximal cytotoxic concentration (CC50) were determined (Tables 5-8).
For orientation: Real-time PCR tracks product formation cycle by cycle.

In a further series the test system is DENV-2 strain 16681. As to the kind of experiment: Tetravalent RT-qPCR assay Protocol A, serotype 2. Particulars: Dengue virus, DENV2, 72 h; RT-qPCR serotype 2 16681, Vero cells, day 3. The format is cell-based. As to the method: as §1, §2, §3, §4, §5
The next series relates to DENV-3 strain H87. The series can be described thus: Tetravalent RT-qPCR assay Protocol A, serotype 3. Particulars: Dengue virus, DENV3, 72 h; RT-qPCR serotype 3 H87, Vero cells, day 3. The format is cell-based. As to the method:
as §1, §2, §3, §4, §5

The test system of another series is DENV-4 strain H241. As to the kind of experiment: Tetravalent RT-qPCR assay Protocol A, serotype 4 H241. The following applies: Dengue virus, DENV4, Vero, 72 h. The class given is cell-based. As to the method: as §1, §2, §3, §4, §5
Series [2] concerns DENV-4 strain EDEN (SG/06K2270DK1/2005). As to the kind of experiment: Tetravalent RT-qPCR assay Protocol A, serotype 4 EDEN. The class given is cell-based. Particulars: Dengue virus, DENV4, 72 h; RT-qPCR serotype 4 EDEN, Vero cells, day 3. As to the method:
as §1, §2, §3, §4, §5

A short description of a further series: in vitro. The class given is cell-based. The following applies: African green monkey. As to the method: as §1, §2, §5

In the case of `COc1cc(NC(C(=O)c2c[nH]c3c(C)c(Cl)ccc23)c2ccc(Cl)cc2OCCO)cc(S(C)(=O)=O)c1` (single isomer, unassigned) [Compound 5B, 2-(4-chloro-2-(2-hydroxyethoxy)phenyl)-1-(6-chloro-7-methyl-1H-indol-3-yl)-2-((3-methoxy-5-(methylsulfonyl)phenyl)amino)ethanone], the EC50 in series [1] was determined as 0.066 nM; in the series with DENV-1 strain TC974#666, 1.6 nM; in the series with DENV-2 strain 16681 it was 0.065 nM; in the series on DENV-3 strain H87, 12 nM; in the series on DENV-4 strain H241, 74 nM; in series [2] it was 1.1 nM. For the same compound, half-maximal cytotoxicity with Vero cells (CC50) was put at 3400 nM. In the series “in vitro”, this compound showed a CC50 at 3 days greater than 2500 nM.

`COc1cc(NC(C(=O)c2c[nH]c3cc(OC)ccc23)c2ccc(Cl)cc2OCCO)cc(S(C)(=O)=O)c1` (single isomer, unassigned) [Compound 3A, 2-(4-chloro-2-(2-hydroxyethoxy)phenyl)-1-(6-methoxy-1H-indol-3-yl)-2-((3-methoxy-5-(methylsulfonyl)phenyl)amino)ethanone]: the EC50 in series [1] came to 0.32 nM; with DENV-1 strain TC974#666 it was 4.2 nM; with DENV-2 strain 16681, 0.4 nM; in the series with DENV-3 strain H87, 42 nM; in the series on DENV-4 strain H241, 110 nM; in series [2], 3.1 nM. In the series with Vero cells, this compound registered a CC50 of 5200 nM. Moreover, the CC50 at 3 days in the series “in vitro” amounted to 5800 nM.

Turning to `COc1cc(NC(C(=O)c2c[nH]c3cc(F)c(F)cc23)c2ccc(Cl)cc2OCCO)cc(S(C)(=O)=O)c1` (single isomer, unassigned) [Compound 7A, 2-(4-chloro-2-(2-hydroxyethoxy)phenyl)-1-(5,6-difluoro-1H-indol-3-yl)-2-((3-methoxy-5-(methylsulfonyl)phenyl)amino)ethanone], the EC50 in series [1] is 0.22 nM; with DENV-1 strain TC974#666 it was 0.97 nM; in the series with DENV-2 strain 16681 it was 0.21 nM; in the series on DENV-3 strain H87 it was 11 nM; with DENV-4 strain H241, 64 nM; in series [2] it was 0.64 nM. The compound further came in with a CC50 in the series with Vero cells of 2700 nM. In addition, in the series “in vitro”, the CC50 at 3 days came out at 2900 nM.
